Test results: patent publication US20060034856A1, “Epha2 antigen t epitopes” (priority 2002, published 2006)
Ends that are not written are not given here.

Experiments:
HLA-A*0201 [1] = biological target: T1, HLA-A*0201 (Homo sapiens, UniProt P04439, D140Y/D185E/D98H/E176V/E277Q/G131W/G231S/I119V/I121R/I166T/I218V/L300P/L318F/N151K/N90K/P208A/P217A/Q86G/Q94H/R138H/R169H/T345S); conditions: ratio of peptide to reference peptide (HIVpol 589) concentration inducing 20% of fluorescence of 100 μM reference; T2 cells; lower RA = stronger binding; mean of at least three experiments
Description: (§1) The immunogenicity of these peptides was evaluated by measuring their affinity for HLA-A*0201. This is defined by two parameters: the relative affinity (RA) which reflects the ability of the peptides to bind to HLA-A*0201, and the rate of dissociation of the HLA-A*0201/peptide complexes (DC50), which reflects their stability.
Human T2 cells (Firat et al., Eur. J. Immunol., 29, 3112, 1999) (3×10^5 cells/ml), which are deficient in TAP transporters, are incubated at 37° C. for 16 hours with various concentrations (100 μM, 10 μM, 1 μM, 0.1 μM) of each test peptide, in serum-free RPMI 1640 medium supplemented with 100 ng/ml of human β2-microglobulin. Next, they are washed twice and labeled with the monoclonal antibody BB7.2 (Parham et al., Hum. Immunol., 3, 4, 277-299, 1981) which is specific for the HLA-A*0201 molecule, and then with a goat anti-mouse Ig antibody coupled to fluorescein isothiocyanate (FITC).
These cells are then analyzed by flow cytometry. […] The relative affinity (RA) is defined as the ratio of the concentration of each peptide that induces 20% of the fluorescence obtained with 100 μM of the reference peptide, to the concentration of the reference peptide that induces 20% of the fluorescence obtained with 100 μM of said reference peptide. […] The mean RA for each peptide is determined from at least three independent experiments.

HLA-A*0201 [2] = biological target: T1, HLA-A*0201; experiment: Stability of HLA-A*0201/peptide complexes (DC50) on T2 cells; type: binding; set-up: endogenous in cells; host or cells: human T2 cells (TAP-deficient); conditions: time for loss of 50% of HLA-A*0201/peptide complexes stabilized at t=0, 100 μM peptide, 37° C.
Description: as §1, with “stability. The high-affinity peptides (RA<5 and DC50>2 hrs) are potentially immunogenic, unlike the low-affinity peptides (RA>5 and DC50<2 hrs).” for “stability.”
T2 cells (10^6/ml) are incubated overnight at 37° C. with 100 μM of each test peptide, in serum-free RPMI 1640 medium supplemented with 100 ng/ml of human β2-microglobulin. Next, they are washed four times in order to remove the free peptides, incubated with BREFELDIN A (Sigma; 10 μg/ml) for one hour in order to prevent the expression at their surface of newly synthesized HLA-A*0201 molecules, washed, and incubated at 37° C. for 0, 2, 4, 6 or 8 hours in the presence of BREFELDIN A (0.5 μg/ml). For each incubation time, the cells are then labeled, as indicated above, with the BB7.2 antibody and analyzed by flow cytometry in order to evaluate the amount of peptide/HLA-A*0201 complex present at their surface. This amount is evaluated by means of the formula: (mean fluorescence of the T2 cells preincubated with the peptide−mean fluorescence of the T2 cells treated under similar conditions in the absence of peptide). The DC50 (dissociation complex: DC) is defined as being the time (in hours) required for the loss of 50% of the HLA-A*0201/peptide complexes which are stabilized at t=0.

[3] = biological target: T2, HLA-A*0201 molecule on human T2 cells (human); experiment: T2 cell HLA-A*0201 stabilisation, flow cytometry with BB7.2; peptide concentration giving 20% of reference fluorescence, relative to HIVpol 589
T2 construct: MHC class I molecule on T2 cells

| Molecule | RA (relative affinity) [3] | RA (relative affinity) (HLA-A*0201 [1]) | DC50 (HLA-A*0201 [2]) [h] |
| --- | --- | --- | --- |
| DMPIYMYSV [p61] | – | >10 | – |
| IMNDMPIYM [p58, IMNDMPIYM] | – | 1 | 4 |
| TLADFDPRV [p883, TLADFDPRV] | – | – | 2 to 4 |
| VLAGVGFFI [p550, VLAGVGFFI] | – | 1 | 4 to 6 |
| VLLLVLAGV [p546, VLLLVLAGV] | – | 1.4 | 4 to 6 |
| YMPIYMYSV [p61Y, YMPIYMYSV] | – | 1.5 | – |
| VLLLVLAGV (Synthetic 9-mer fragment of the human EphA2 antigen) [p546 peptide of EphA2] | 1.4 ratio to reference peptide | – | – |
| TLADFDPRV (Synthetic 9-mer fragment of the human EphA2 antigen) [p883 peptide of EphA2] | 2.2 ratio to reference peptide | – | – |

Continued, in another order:

| RA (relative affinity) [3] | Molecule | RA (relative affinity) (HLA-A*0201 [1]) | DC50 (HLA-A*0201 [2]) [h] |
| --- | --- | --- | --- |
| 1.5 ratio to reference peptide | YMPIYMYSV (Variant of p61 in which the N-terminal aspartic acid is replaced by tyrosine) [p61Y variant peptide] | – | – |
| 1 ratio to reference peptide | IMNDMPIYM (Synthetic 9-mer fragment of the human EphA2 antigen (SYNT:EM), purity >85%) [p58 peptide of EphA2] | – | – |
| 1 ratio to reference peptide | VLAGVGFFI (Synthetic 9-mer fragment of the human EphA2 antigen) [p550 peptide of EphA2] | – | – |
